From patent US20250243488A1, “METHODS OF MODULATING PROGRANULIN EXPRESSION USING ANTISENSE OLIGONUCLEOTIDES TARGETING REGULATORY RNAS” (Camp4 Therapeutics Corporation, priority 2022, published 2025)
Oligonucleotides are written 5' to 3', each unit as a sugar letter and its base; * is a phosphorothioate linkage, no mark a phosphodiester; rarer units and linkages stand in square brackets, end groups in braces. Plain capitals give the bases only. e = 2'-O-(2-methoxyethyl) (MOE); l = locked nucleic acid (LNA); [5mC] = 5-methylcytosine

Tested on: mGrn mRNA
Experiment: mGrn mRNA qPCR in Neuro2a cells transfected with ASOs
Format: cell-based, mouse
Settings: for mGRN mRNA FC: Table 14, 100 nM, 48 hours, normalized to sNTC3; for 40 nM FC (mGrn mRNA) / 80 nM FC (mGrn mRNA) / 160 nM FC (mGrn mRNA): transfection

CO-3579: ASO targeting the Grn promoter (− strand) (antisense eG*eA*e[5mC]*eT*eA*eT*eT*eT*eA*eT*e[5mC]*eT*eT*e[5mC]*eA*e[5mC]*e[5mC]*e[5mC]*eT*e[5mC])
mGRN mRNA FC (Neuro2a): 1.2 FC

CO-3566: ASO targeting the Grn promoter (− strand) (antisense eG*e[5mC]*eT*eA*eA*eT*eG*eG*eA*eA*eA*eT*eT*eG*eA*eG*eG*eT*eG*eG)
mGRN mRNA FC (Neuro2a): 1.1 FC

CO-3563: ASO targeting the Grn promoter (− strand) (antisense eG*e[5mC]*eA*eG*eA*e[5mC]*eA*eA*eT*e[5mC]*eT*e[5mC]*e[5mC]*e[5mC]*e[5mC]*eG*eG*e[5mC]*eT*eA)
mGRN mRNA FC (Neuro2a): 1.5 FC

CO-5309: CO-3595 modified to include varying PO/PS internucleotide bonds (antisense e[5mC]*e[5mC]*eTeGeAeAe[5mC]eTeGeTeAeTeGeGe[5mC]eT*eG*eA*e[5mC]*e[5mC])
40 nM FC (mGrn mRNA) (Table 16, Neuro2A): 1.3 FC | 80 nM FC (mGrn mRNA) (Table 16, Neuro2A): 1.7 FC | 160 nM FC (mGrn mRNA) (Table 16, Neuro2A): 2.0 FC

CO-3553: ASO targeting the Grn promoter (− strand) (antisense e[5mC]*eA*eA*eG*eT*eG*eT*eT*e[5mC]*eT*e[5mC]*eT*eG*e[5mC]*eG*eG*e[5mC]*eG*eG*e[5mC])
mGRN mRNA FC (Neuro2a): 1.3 FC

CO-3585: ASO targeting the Grn promoter (− strand) (antisense eG*eT*e[5mC]*e[5mC]*e[5mC]*eA*e[5mC]*e[5mC]*eT*eT*eA*eT*e[5mC]*eA*eG*e[5mC]*e[5mC]*eT*e[5mC]*eT)
mGRN mRNA FC (Neuro2a): 1.7 FC

CO-3567: ASO targeting the Grn promoter (− strand) (antisense e[5mC]*e[5mC]*e[5mC]*eT*eG*eG*eA*eT*e[5mC]*eT*e[5mC]*e[5mC]*eG*eA*eG*e[5mC]*eA*eA*eT*eG)
mGRN mRNA FC (Neuro2a): 1.1 FC

CO-3570: ASO targeting the Grn promoter (− strand) (antisense e[5mC]*eT*eA*eA*eT*e[5mC]*eA*e[5mC]*eA*eT*eG*eA*eT*e[5mC]*e[5mC]*e[5mC]*eT*eA*eG*eA)
mGRN mRNA FC (Neuro2a): 1.2 FC

CO-3576: ASO targeting the Grn promoter (− strand) (antisense eA*eT*eG*eT*eA*e[5mC]*eA*eA*eA*eA*eG*eT*e[5mC]*e[5mC]*e[5mC]*eG*eA*eT*e[5mC]*e[5mC])
mGRN mRNA FC (Neuro2a): 1.2 FC

CO-3559: ASO targeting the Grn promoter (− strand) (antisense eG*eT*eT*eG*eT*eA*eG*eA*eG*eA*e[5mC]*eA*e[5mC]*e[5mC]*eT*e[5mC]*e[5mC]*e[5mC]*e[5mC]*eG)
mGRN mRNA FC (Neuro2a): 1.4 FC

CO-3584: ASO targeting the Grn promoter (− strand) (antisense eG*e[5mC]*eT*eT*e[5mC]*eA*eA*eT*eT*eT*eA*eA*eT*eG*e[5mC]*eA*eG*eT*eG*e[5mC])
mGRN mRNA FC (Neuro2a): 1.1 FC

CO-3551: ASO targeting the Grn promoter (− strand) (antisense eG*e[5mC]*eG*eT*eG*eA*eT*eG*eG*e[5mC]*eT*eG*eA*eG*eT*e[5mC]*e[5mC]*e[5mC]*eT*eG)
mGRN mRNA FC (Neuro2a): 1.5 FC

CO-5300: CO-3544 modified to include PO/PS bonds (antisense eG*eT*eTe[5mC]eTe[5mC]e[5mC]e[5mC]*eT*eA*eG*e[5mC]*eT*eG*eT*eG*eT*eA*eG*eT)
40 nM FC (mGrn mRNA) (Table 15, Neuro2a): 1.3 FC | 80 nM FC (mGrn mRNA) (Table 15, Neuro2a): 1.4 FC | 160 nM FC (mGrn mRNA) (Table 15, Neuro2a): 1.4 FC

CO-5312: CO-3595 modified to include varying PO/PS internucleotide bonds (antisense e[5mC]*e[5mC]*eTeGeAeAe[5mC]eTeGeT*eA*eT*eG*eG*e[5mC]*eT*eG*eA*e[5mC]*e[5mC])
40 nM FC (mGrn mRNA) (Table 16, Neuro2A): 1.5 FC | 80 nM FC (mGrn mRNA) (Table 16, Neuro2A): 1.7 FC | 160 nM FC (mGrn mRNA) (Table 16, Neuro2A): 1.8 FC

CO-3549: ASO targeting the Grn promoter (− strand) (antisense eA*eG*e[5mC]*eT*eA*eA*eT*eT*eT*e[5mC]*e[5mC]*eG*e[5mC]*e[5mC]*eT*e[5mC]*eT*e[5mC]*e[5mC]*e[5mC])
mGRN mRNA FC (Neuro2a): 1.4 FC

CO-5303: CO-3595 modified to include varying PO/PS internucleotide bonds (antisense e[5mC]*e[5mC]*eTeGeAeAe[5mC]eTeGeTeAeTeGeGe[5mC]eTeG*eA*e[5mC]*e[5mC])
40 nM FC (mGrn mRNA) (Table 16, Neuro2A): 1.3 FC | 80 nM FC (mGrn mRNA) (Table 16, Neuro2A): 1.6 FC | 160 nM FC (mGrn mRNA) (Table 16, Neuro2A): 1.8 FC

CO-3561: ASO targeting the Grn promoter (− strand) (antisense e[5mC]*e[5mC]*eT*e[5mC]*eT*eT*eG*eA*eA*eA*e[5mC]*eT*e[5mC]*e[5mC]*e[5mC]*e[5mC]*eT*eA*eGeG)
mGRN mRNA FC (Neuro2a): 1.3 FC

CO-3582: ASO targeting the Grn promoter (− strand) (antisense e[5mC]*eA*e[5mC]*eA*eT*e[5mC]*eT*eA*e[5mC]*eA*eG*eT*eG*e[5mC]*e[5mC]*e[5mC]*eG*eG*eT*eA)
mGRN mRNA FC (Neuro2a): 1.1 FC

CO-3588: ASO targeting the Grn promoter (− strand) (antisense eG*eT*e[5mC]*eT*eG*eT*eA*eA*eA*eG*eA*eA*e[5mC]*eA*eA*eG*eA*eT*eA*eT)
mGRN mRNA FC (Neuro2a): 0.9 FC

CO-3597: ASO targeting the Grn promoter (− strand) (antisense eA*e[5mC]*eA*eA*e[5mC]*e[5mC]*e[5mC]*eT*eG*e[5mC]*eA*eT*eG*e[5mC]*eA*e[5mC]*eT*e[5mC]*e[5mC]*eT)
mGRN mRNA FC (Neuro2a): 1.2 FC

CO-3568: ASO targeting the Grn promoter (− strand) (antisense e[5mC]*e[5mC]*eG*e[5mC]*e[5mC]*eT*e[5mC]*eT*eA*e[5mC]*eG*eT*eA*eG*eA*e[5mC]*eA*eA*eG*eT)
mGRN mRNA FC (Neuro2a): 1.2 FC

CO-5299: CO-3544 modified to include PO/PS bonds (antisense eG*eT*eTe[5mC]eTe[5mC]e[5mC]e[5mC]eTeA*eG*e[5mC]*eT*eGeT*eG*eT*eA*eG*eT)
40 nM FC (mGrn mRNA) (Table 15, Neuro2a): 1.2 FC | 80 nM FC (mGrn mRNA) (Table 15, Neuro2a): 1.3 FC | 160 nM FC (mGrn mRNA) (Table 15, Neuro2a): 1.5 FC

CO-3577: ASO targeting the Grn promoter (− strand) (antisense e[5mC]*eT*eG*e[5mC]*e[5mC]*eA*eG*eG*e[5mC]*eG*eT*eG*eA*eA*eG*eA*eG*eA*e[5mC]*eA)
mGRN mRNA FC (Neuro2a): 1.1 FC

CO-5304: CO-3595 modified to include varying PO/PS internucleotide bonds (antisense e[5mC]*e[5mC]*eT*eG*eAeAe[5mC]eTeGeTeAeTeGeGe[5mC]eTeG*eA*e[5mC]*e[5mC])
40 nM FC (mGrn mRNA) (Table 16, Neuro2A): 1.4 FC | 80 nM FC (mGrn mRNA) (Table 16, Neuro2A): 1.6 FC | 160 nM FC (mGrn mRNA) (Table 16, Neuro2A): 2.2 FC

CO-4083: ASO based on parent ASOs CO-3544 and CO-3595, different modifications and base walking (antisense e[5mC]*e[5mC]*eT*eG*eA*lA*e[5mC]*eT*lG*eT*eA*lT*eG*eG*l[5mC]*eT*eG*eA*e[5mC]*e[5mC])
40 nM FC (mGrn mRNA) (Table 16, Neuro2A): 1.3 FC | 80 nM FC (mGrn mRNA) (Table 16, Neuro2A): 1.4 FC | 160 nM FC (mGrn mRNA) (Table 16, Neuro2A): 1.6 FC

CO-5302: CO-3544 modified to include PO/PS bonds (antisense lG*lT*eT*l[5mC]*eT*l[5mC]*e[5mC]*l[5mC]*eT*lA*eG*l[5mC]*eT*lG*eT*lG*lT*eA*lG*lT)
40 nM FC (mGrn mRNA) (Table 15, Neuro2a): 1.3 FC | 80 nM FC (mGrn mRNA) (Table 15, Neuro2a): 1.2 FC | 160 nM FC (mGrn mRNA) (Table 15, Neuro2a): 1.0 FC

CO-5295: CO-3544 modified to include PO/PS bonds (antisense eG*eT*eT*e[5mC]*eT*e[5mC]*e[5mC]*e[5mC]*eT*eA*eG*e[5mC]*eTeGeTeGeT*eA*eG*eT)
40 nM FC (mGrn mRNA) (Table 15, Neuro2a): 1.1 FC | 80 nM FC (mGrn mRNA) (Table 15, Neuro2a): 1.3 FC | 160 nM FC (mGrn mRNA) (Table 15, Neuro2a): 1.4 FC

CO-5298: CO-3544 modified to include PO/PS bonds (antisense eG*eT*eTe[5mC]eTe[5mC]e[5mC]e[5mC]eTeAeGe[5mC]*eT*eG*eT*eG*eT*eA*eG*eT)
40 nM FC (mGrn mRNA) (Table 15, Neuro2a): 1.3 FC | 80 nM FC (mGrn mRNA) (Table 15, Neuro2a): 1.3 FC | 160 nM FC (mGrn mRNA) (Table 15, Neuro2a): 1.5 FC

CO-3550: ASO targeting the Grn promoter (− strand) (antisense eG*eG*eT*eT*eG*eT*eG*eT*e[5mC]*eA*eG*e[5mC]*eT*eT*eT*eA*eT*eT*eT*e[5mC])
mGRN mRNA FC (Neuro2a): 0.9 FC

CO-3580: ASO targeting the Grn promoter (− strand) (antisense eG*e[5mC]*e[5mC]*eA*e[5mC]*eT*e[5mC]*eT*e[5mC]*e[5mC]*e[5mC]*e[5mC]*eA*eT*eT*e[5mC]*eA*eA*eA*e[5mC])
mGRN mRNA FC (Neuro2a): 1.2 FC

CO-3586: ASO targeting the Grn promoter (− strand) (antisense eA*eA*eT*e[5mC]*eT*eA*eG*eT*eT*eT*e[5mC]*eA*eA*eG*eT*eT*e[5mC]*e[5mC]*eT*e[5mC])
mGRN mRNA FC (Neuro2a): 1.4 FC

CO-3547: ASO targeting the Grn promoter (− strand) (antisense eA*eT*e[5mC]*eT*eG*eG*eA*eT*eT*eG*eG*e[5mC]*eT*e[5mC]*eA*e[5mC]*e[5mC]*eT*eT*eT)
mGRN mRNA FC (Neuro2a): 1.7 FC

CO-5296: CO-3544 modified to include PO/PS bonds (antisense eG*eT*eTe[5mC]eTe[5mC]e[5mC]e[5mC]eTeAeGe[5mC]eTeGeTeG*eT*eA*eG*eT)
40 nM FC (mGrn mRNA) (Table 15, Neuro2a): 1.1 FC | 80 nM FC (mGrn mRNA) (Table 15, Neuro2a): 1.1 FC | 160 nM FC (mGrn mRNA) (Table 15, Neuro2a): 1.0 FC

CO-3557: ASO targeting the Grn promoter (− strand) (antisense eT*eG*eT*e[5mC]*eG*eG*eA*eA*eA*eG*e[5mC]*eT*eG*e[5mC]*eA*eG*eG*e[5mC]*e[5mC]*eT)
mGRN mRNA FC (Neuro2a): 1.6 FC

CO-3571: ASO targeting the Grn promoter (− strand) (antisense eG*e[5mC]*eT*eA*eT*eG*eT*eT*eG*eT*e[5mC]*eA*eT*eA*eT*eG*eA*eT*eT*e[5mC])
mGRN mRNA FC (Neuro2a): 1.4 FC

CO-3593: ASO targeting the Grn promoter (− strand) (antisense e[5mC]*eA*eT*eA*eA*e[5mC]*eA*eA*eT*eT*e[5mC]*e[5mC]*eT*e[5mC]*eG*eA*eA*eG*eG*eT)
mGRN mRNA FC (Neuro2a): 1.1 FC
